System: recombinant NL4-3 virus (Renilla luciferase in nef, Gag P373S)
Assay: HIV cell culture assay (luciferase activity in MT-2 cells infected with NLRluc recombinant virus)
Format: cell-based
Details: NL43, MT-2 cells infected 4-5 days with NLRluc recombinant virus
Summary of the method: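 MT-2 cells in RPMI/10% FBS were infected with recombinant NL4-3 (NLRluc), produced by 293T transfection and titered in MT-2 by luciferase. Serial inhibitor dilutions were present throughout a 4–5 day infection. Antiviral activity was quantified as Renilla luciferase signal via a modified Dual Luciferase read.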

Row | Structure (SMILES) | EC50 (numeric value) [nM] | EC50 (class symbol) [nM]
1 | C=C(C)[C@@H]1CC[C@]2(CNCCc3ccccn3)CC[C@]3(C)[C@H](CC[C@@H]4[C@@]5(C)CC=C(c6ccc(C(=O)O)cc6)C(C)(C)[C@@H]5CC[C@]43C)[C@@H]12 [Example 5, 4-((1R,3aS,5aR,5bR,7aR,11aS,11bR,13aR,13bR)-5a,5b,8,8,11a-pentamethyl-1-(prop-1-en-2-yl)-3a-((2-(pyridin-2-yl)ethylamino)methyl)-2,3,3a,4,5,5a,5b,6,7,7a,8,11,11a,11b,12,13,13a,13b-octadecahydro-1H-cyclopenta[a]chrysen-9-yl)benzoic acid] | 20 | –
2 | C=C(C)[C@@H]1CC[C@]2(CN(C)CCCN3CCS(=O)(=O)CC3)CC[C@]3(C)[C@H](CC[C@@H]4[C@@]5(C)CC=C(c6ccc(C(=O)O)cc6)C(C)(C)[C@@H]5CC[C@]43C)[C@@H]12 [Example 15, 4-((1R,3aS,5aR,5bR,7aR,11aS,11bR,13aR,13bR)-5a,5b,8,8,11a-pentamethyl-1-(prop-1-en-2-yl)-3a-((3-(1-dioxo-thiomorpholino)propylamino)methyl)-2,3,3a,4,5,5a,5b,6,7,7a,8,11,11a,11b,12,13,13a,13b-octadecahydro-1H-cyclopenta[a]chrysen-9-yl)benzoic acid] | – | < 100
3 | C=C(C)[C@@H]1CC[C@]2(CNCCC(=O)N3CCCC3)CC[C@]3(C)[C@H](CC[C@@H]4[C@@]5(C)CC=C(c6ccc(C(=O)O)cc6)C(C)(C)[C@@H]5CC[C@]43C)[C@@H]12 [Example 70, 4-((1R,3aS,5aR,5bR,7aR,11aS,11bR,13aR,13bR)-5a,5b,8,8,11a-pentamethyl-3a-((3-oxo-3-(pyrrolidin-1-yl)propylamino)methyl)-1-(prop-1-en-2-yl)-2,3,3a,4,5,5a,5b,6,7,7a,8,11,11a,11b,12,13,13a,13b-octadecahydro-1H-cyclopenta[a]chrysen-9-yl)benzoic acid] | – | < 100
4 | C=C(C)[C@@H]1CC[C@]2(CNCCCN(CCO)CCO)CC[C@]3(C)[C@H](CC[C@@H]4[C@@]5(C)CC=C(c6ccc(C(=O)O)cc6)C(C)(C)[C@@H]5CC[C@]43C)[C@@H]12 [Example 60, 4-((1R,3aS,5aR,5bR,7aR,11aS,11bR,13aR,13bR)-3a-((3-(bis(2-hydroxyethyl)amino)propylamino)methyl)-5a,5b,8,8,11a-pentamethyl-1-(prop-1-en-2-yl)-2,3,3a,4,5,5a,5b,6,7,7a,8,11,11a,11b,12,13,13a,13b-octadecahydro-1H-cyclopenta[a]chrysen-9-yl)benzoic acid] | – | < 100
5 | C=C(C)[C@@H]1CC[C@]2(CNCCS(N)(=O)=O)CC[C@]3(C)[C@H](CC[C@@H]4[C@@]5(C)CC=C(c6ccc(C(=O)O)cc6)C(C)(C)[C@@H]5CC[C@]43C)[C@@H]12 [Example 45] | – | < 100
6 | C=C(C)[C@@H]1CC[C@]2(CNCCC(=O)N3CCC4(CCN(C)C4=O)CC3)CC[C@]3(C)[C@H](CC[C@@H]4[C@@]5(C)CC=C(c6ccc(C(=O)O)cc6)C(C)(C)[C@@H]5CC[C@]43C)[C@@H]12 [Example 123, 4-((1R,3aS,5aR,5bR,7aR,11aS,11bR,13aR,13bR)-5a,5b,8,8,11a-pentamethyl-3a-((3-(2-methyl-1-oxo-2,8-diazaspiro[4.5]decan-8-yl)-3-oxopropylamino)methyl)-1-(prop-1-en-2-yl)-2,3,3a,4,5,5a,5b,6,7,7a,8,11,11a,11b,12,13,13a,13b-octadecahydro-1H-cyclopenta[a]chrysen-9-yl)benzoic acid] | – | < 100
7 | C=C(C)[C@@H]1CC[C@]2(CNCCc3ccc(S(N)(=O)=O)cc3)CC[C@]3(C)[C@H](CC[C@@H]4[C@@]5(C)CC=C(c6ccc(C(=O)O)cc6)C(C)(C)[C@@H]5CC[C@]43C)[C@@H]12 [Example 36, 4-((1R,3aS,5aR,5bR,7aR,11aS,11bR,13aR,13bR)-5a,5b,8,8,11a-pentamethyl-1-(prop-1-en-2-yl)-3a-((4-sulfamylphenethylamino)methyl)-2,3,3a,4,5,5a,5b,6,7,7a,8,11,11a,11b,12,13,13a,13b-octadecahydro-1H-cyclopenta[a]chrysen-9-yl)benzoic acid] | – | < 100
8 | C=C(C)[C@@H]1CC[C@]2(CNC3(C(=O)O)CC3)CC[C@]3(C)[C@H](CC[C@@H]4[C@@]5(C)CC=C(c6ccc(C(=O)O)cc6)C(C)(C)[C@@H]5CC[C@]43C)[C@@H]12 [Example 50, 4-((1R,3aS,5aR,5bR,7aR,11aS,11bR,13aR,13bR)-3a-((1-carboxycyclopropylamino)methyl)-5a,5b,8,8,11a-pentamethyl-1-(prop-1-en-2-yl)-2,3,3a,4,5,5a,5b,6,7,7a,8,11,11a,11b,12,13,13a,13b-octadecahydro-1H-cyclopenta[a]chrysen-9-yl)benzoic acid] | – | < 100
9 | C=C(C)[C@@H]1CC[C@]2(CNCCN3CCNC3=O)CC[C@]3(C)[C@H](CC[C@@H]4[C@@]5(C)CC=C(c6ccc(C(=O)O)cc6)C(C)(C)[C@@H]5CC[C@]43C)[C@@H]12 [Example 77, 4-((1R,3aS,5aR,5bR,7aR,11aS,11bR,13aR,13bR)-5a,5b,8,8,11a-pentamethyl-3a-((2-(2-oxoimidazolidin-1-yl)ethylamino)methyl)-1-(prop-1-en-2-yl)-2,3,3a,4,5,5a,5b,6,7,7a,8,11,11a,11b,12,13,13a,13b-octadecahydro-1H-cyclopenta[a]chrysen-9-yl)benzoic acid] | – | < 100
10 | C=C(C)[C@@H]1CC[C@]2(CNC(CC(=O)O)C(=O)N3CCC(F)(F)C3)CC[C@]3(C)[C@H](CC[C@@H]4[C@@]5(C)CC=C(c6ccc(C(=O)O)cc6)C(C)(C)[C@@H]5CC[C@]43C)[C@@H]12 (stereo partly drawn) [Example 131, 4-((1R,3aS,5aR,5bR,7aR,11aS,11bR,13aR,13bR)-3a-((3-carboxy-1-(3,3-difluoropyrrolidin-1-yl)-1-oxopropan-2-ylamino)methyl)-5a,5b,8,8,11a-pentamethyl-1-(prop-1-en-2-yl)-2,3,3a,4,5,5a,5b,6,7,7a,8,11,11a,11b,12,13,13a,13b-octadecahydro-1H-cyclopenta[a]chrysen-9-yl)benzoic acid] | – | < 100
11 | C=C(C)[C@@H]1CC[C@]2(CNC3(C(=O)OC)CC3)CC[C@]3(C)[C@H](CC[C@@H]4[C@@]5(C)CC=C(c6ccc(C(=O)O)cc6)C(C)(C)[C@@H]5CC[C@]43C)[C@@H]12 [Example 51, 4-((1R,3aS,5aR,5bR,7aR,11aS,11bR,13aR,13bR)-3a-((1-(methoxycarbonyl)cyclopropylamino)methyl)-5a,5b,8,8,11a-pentamethyl-1-(prop-1-en-2-yl)-2,3,3a,4,5,5a,5b,6,7,7a,8,11,11a,11b,12,13,13a,13b-octadecahydro-1H-cyclopenta[a]chrysen-9-yl)benzoic acid] | – | < 100
12 | C=C(C)[C@@H]1CC[C@]2(CNC(=O)C(F)(F)C(=O)O)CC[C@]3(C)[C@H](CC[C@@H]4[C@@]5(C)CC=C(c6ccc(C(=O)O)cc6)C(C)(C)[C@@H]5CC[C@]43C)[C@@H]12 [Example 153, 4-((1R,3aS,5aR,5bR,7aR,11aS,11bR,13aR,13bR)-3a-((2-carboxy-2,2-difluoroacetamido)methyl)-5a,5b,8,8,11a-pentamethyl-1-(prop-1-en-2-yl)-2,3,3a,4,5,5a,5b,6,7,7a,8,11,11a,11b,12,13,13a,13b-octadecahydro-1H-cyclopenta[a]chrysen-9-yl)benzoic acid] | – | > 100
